Measurements published in ChEMBL document CHEMBL2086313, “Structure-based design of novel potent protein kinase CK2 (CK2) inhibitors with phenyl-azole scaffolds” (J Med Chem, 2012).
pIC50: −log10 of the molar value.

Columns and labels:
MCF7 = test: Antiproliferative activity against human MCF7 cells after 72 hrs by MTS assay; details: MCF7, 72 h
A549 = test: cells; details: Homo sapiens, A549, 72 h
HCT-116 = test: cells; details: Homo sapiens, HCT-116, 72 h
[1] = target: T1, Casein kinase II subunit alpha (Homo sapiens, UniProt P68400); test: Competitive inhibition of GST fused human CK2alpha expressed in Escherichia coli BL21 after 10 mins in presence of ATP
[2] = target: T2, Casein kinase II subunit alpha' (Homo sapiens, UniProt P19784); test: Competitive inhibition of GST fused human CK2alpha' expressed in Escherichia coli BL21 after 10 mins in presence of ATP
[3] = target: T2, Casein kinase II subunit alpha'; test: Inhibition of GST fused human CK2alpha' expressed in Escherichia coli BL21 at 0.3 uM
[4] = target: T1, Casein kinase II subunit alpha; test: Inhibition of GST fused human CK2alpha expressed in Escherichia coli BL21 at 0.3 uM
[5] = target: Dual specificity tyrosine-phosphorylation-regulated kinase 1B (Homo sapiens) (UniProt Q9Y463); test: Inhibition of DYRK1B at 0.3 uM
[6] = target: Receptor-type tyrosine-protein kinase FLT3 (Homo sapiens) (UniProt P36888); test: Inhibition of FLT3 at 0.3 uM
[7] = target: Cyclin-dependent kinase 6 (Homo sapiens) (UniProt Q00534); test: Inhibition of CDK6 at 3 uM
[8] = target: RAC-alpha serine/threonine-protein kinase (Homo sapiens) (UniProt P31749); test: Inhibition of AKT1 at 3 uM

| Compound | pIC50 (MCF7) | pIC50 (A549) | pIC50 (HCT-116) | pIC50 [1] | pIC50 [2] | inhibition [3] [%] | inhibition [4] [%] | inhibition [5] [%] | inhibition [6] [%] | inhibition [7] [%] | inhibition [8] [%] |
| --- | --- | --- | --- | --- | --- | --- | --- | --- | --- | --- | --- |
| O=C(O)Cc1ccn(-c2cncc(-n3ncc4ccc(NC5CCCC5)cc43)n2)c1 | 4.12 | 4.44 | 4.62 |  |  |  |  |  |  |  |  |
| COc1ccc(C(=O)Nc2ncc(-c3ccc(C(=O)O)cc3)s2)cc1 | 5.62 | 5.59 | 5.80 | 7.49 | 7.34 | > 100 | 84 | 82 | 76 | 32 | 0.8 |

More lines, now with the values ahead:

| pIC50 (MCF7) | pIC50 (A549) | pIC50 (HCT-116) | pIC50 [1] | pIC50 [2] | inhibition [3] [%] | inhibition [4] [%] | inhibition [5] [%] | inhibition [6] [%] | inhibition [7] [%] | inhibition [8] [%] | Compound |
| --- | --- | --- | --- | --- | --- | --- | --- | --- | --- | --- | --- |
| < 4.52 | < 4.52 | < 4.52 |  |  |  |  |  |  |  |  | COc1ccc(C(=O)Nc2cc(-c3ccc(C(=O)O)cc3)[nH]n2)cc1 |
| < 4.52 | < 4.52 | < 4.52 |  |  |  |  |  |  |  |  | COc1ccc(C(=O)Nc2nnc(-c3ccc(C(=O)O)cc3)s2)cc1 |
| 5.19 | 5.09 | 5.28 |  |  |  |  |  |  |  |  | O=C(O)c1ccc2c(c1)nc(Nc1cccc(Cl)c1)c1ccncc12 [SILMITASERTIB] |
